Test results as given in US7582652B2, “Kinase inhibitors” (Eli Lilly and Company, priority 2004, dated 2009).

Tests used:
p38 kinase enzyme = p38 kinase enzyme (Homo sapiens, UniProt Q16539); test: Inhibition of p38 kinase; format: biochemical; conditions: 33P-ATP, EGF peptide 661-681, 30° C.
Description: Standard Solution Preparations
The kinase buffer solution is prepared by combining 2.5 mL 1 M Tris-HCl (pH 7.5), 0.1 ml 1 M dithiothreitol, 1.0 mL 1 M magnesium chloride, and 300 μL 1% Triton X-100 and diluting to 100 mL with water. 84 mL of this kinase buffer solution is combined with 16 mL DMSO to prepare the 16% DMSO solution.
The 200 μM ATP solution is prepared by adding 102.6 μL 10 mM aqueous ATP, 25 μL ^33P-ATP, and 163.5 μL of 4 mM aqueous Epidermal Growth Factor Peptide 661-681 (Biomol, Catalog #P-121) in 5 mL kinase buffer solution.
The p38 kinase enzyme solution is prepared by dissolving 9.5 μL concentrated enzyme solution (250 ng p38 enzyme/μL kinase buffer solution) in 1536 μL kinase buffer solution.
An 80 μM solution of each test compound and control compound are prepared by dissolving 2 μL of a 10 mM stock solution of the respective compounds in dimethylsulfoxide in 248 μL of the 16% DMSO solution in a Costar 96-well microtiter plate. The plate is placed onto the Tecan Genesis automated liquid handler for 1:3 serial dilutions.
10 μL of serially diluted compound is placed with a Beckmnan Multimek 96-well automated liquid handler to the assay plate. […] of 200 μM ATP solution is added with a Titertek Multidrop 8-channel liquid handler. 10 μL of p38 kinase enzyme solution is transferred to the assay plate using the Multimek. The mixture is allowed to react for […] and then the reaction is stopped by adding 60 μL of freshly prepared 5% glacial AcOH with Multidrop. 80 μL of this solution is transferred to an “MAPH” plate using the Multimek. The plates are allowed to set for 30 min at RT and then washed/aspirated on the Titertek MAP extractor with freshly prepared 0.5% glacial AcOH (1×300 μL, 2×200 μL). The wells are blotted and 100 μL MicroScint-20 scintillation fluid (Packard Bioscience) is added with the Multidrop. The plates are allowed to sit for 30 min and counted on a PE/Wallac Microbeta Trilux scintillation counter for ^33P-isotope.
All exemplified compounds were initially tested at 10 concentrations (20 μM−1 nM using 1:3 serial dilutions). […] IC50 values were calculated (IDBS ActivityBase software) for each compound using non-linear regression.

[1] = system: TNF-α production in mouse peritoneal macrophages; test: Inhibition of TNF-α in vitro (mouse peritoneal macrophages, LPS/interferon-γ, Luminex); format: cell-based; conditions: Mus musculus, Peritoneal macrophage; suppression of TNF-α; macrophages treated with 50 ng/mL LPS and 10 U/mL interferon-γ for 18 h
Description: Mouse Peritoneal Macrophages
1 mL thioglycolate broth (5.0 g yeast extract, 15.0 g casitone or trypticase, 5.0 g dextrose, 2.5 g sodium chloride, 0.75 g L-cystine, 0.5 g sodium thioglycolate, 1.0 mg resazurin, and 0.75 g agar in 1.0 L distilled water) is injected into the peritoneal cavity of Balb/C female mice. At day 4 or 5 post-injection the mice are sacrificed and then injected i.p. with 4 mL RPMI-1640 medium (BioWhittaker) and the peritoneal macrophages are withdrawn by syringe.
Mouse peritoneal microphages are counted with a hemocytometer and adjusted to 5×10^5 cells/well in 96-well plates in RPMI-1640 medium with 10% fetal bovine serum. 200 μL/well is plated in 96-well plates and the cells allowed to settle and adhere to the bottom of the well for at least 3 h. The test compound or standard p38 kinase inhibitor is pre-treated using a series of 8 concentrations for 1 h at 37° C. (20 μL/well). The cells are treated with a mixture of 50 ng/mL lipopolysaccharide (LPS) and 10 U/mL interferon-γ for 18 h at 37° C. (20 μL/well). The conditioned media is harvested and assayed for TNF-α production using the Luminex procedure.
TNF-α/Luminex Detection Assay (Bio-Rad Bio-Plex Kit—Catalog #171-G12221)
The lyophilized premixed TNF-α standard (1 standard tube/two 96-well plates) is reconstituted with 50 μL sterile water (500,000 pg/mL). The samples are vortexed for 5 seconds, incubated on ice for 30 min, and vortexed for 5 seconds before use. A set of twelve 1.5 mL tubes are labeled with #1-thru #12 and then the amounts of cell media shown below added to the appropriate tubes (standard concentrations are as follows: 50,000; 25,000; 12,500; 6,250; 3,125; 1,562.5; 781.3; 390.6; 195.3; 97.7; 48.8; and 24.4 pg/mL). The premixed anti-cytokine conjugated beads are vortexed (25×) vigorously for 30 seconds. The anti-cytokine conjugated beads are diluted to a 1× concentration using 1× Bio-Plex Assay Buffer. For every plate, 240 μL of the pre-mixed beads is added to 5760 μL of Bio-Plex Assay Buffer. A Millipore 96-well filter plate is blocked with 100 μL/well of blocking buffer. The blocking buffer is filtered through using a Millipore filtration system and then toweled dry. 2 washes are performed on the filter plate with 100 μL/well of Bio-Plex Assay Buffer and toweled dry. The 1× anti-cytokine conjugated beads are vortexed for 15 seconds and added 50 μL to each well. This is filtered through and toweled dry. 2 washes are performed on plates with 100 μl/well of Bio-Plex Wash Buffer. Again, it is filtered through and toweled dry. 50 μL of sample or standard is added to each sample well. This is incubated for 60 seconds at RT on a shaker protected from light at setting 6 and then for 30 min at setting 3 and then placed in the refrigerator overnight. 3 washes are performed with Bio-Plex Wash Buffer. Filter through and toweled dry. The cytokine detection antibody is prepared (˜10 min prior to use) for every plate and 60 μL of the premixed cytokine detection antibody stock is added to 5940 μL of Bio-Plex Detection Antibody Diluent. 50 μL of cytokine detection antibody is added and incubated for 60 seconds at RT on a shaker protected from light at setting 6 and then for 30 min at setting 3.3 washes are performed with the Bio-Plex Wash Buffer. This is filtered through and toweled dry. Strept-PE (˜10 minutes prior to use) is prepared for every plate and 60 μL to 5940 μL of Bio-Plex Assay Buffer added. 50 μL of Streptavidin-PE is added to each well and incubated for 60 seconds at RT on a shaker protected from light at setting 6 and then for 10 min at setting 3. 3 washes are performed with Bio-Plex Wash-Buffer. This is filtered through. The beads are re-suspended in 100 μL/well of Bio-Plex Assay Buffer. Standards and samples are read on a Luminex machine. […]

Sequence of p38 kinase enzyme (Q16539 whole entry): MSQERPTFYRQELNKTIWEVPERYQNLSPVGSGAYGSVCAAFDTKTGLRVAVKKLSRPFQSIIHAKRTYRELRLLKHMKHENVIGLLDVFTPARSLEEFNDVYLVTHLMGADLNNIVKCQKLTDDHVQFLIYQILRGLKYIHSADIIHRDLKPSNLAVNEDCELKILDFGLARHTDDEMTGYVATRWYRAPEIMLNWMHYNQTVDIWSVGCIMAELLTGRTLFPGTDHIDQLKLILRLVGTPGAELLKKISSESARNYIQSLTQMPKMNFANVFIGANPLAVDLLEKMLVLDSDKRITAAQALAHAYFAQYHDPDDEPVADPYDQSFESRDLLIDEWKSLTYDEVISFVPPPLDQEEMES

Structure (SMILES)	IC50 (p38 kinase enzyme)	IC50 [1]
CC(C)(C)Cn1c(N)nc2ccc(-c3[nH]c(-c4c(F)cccc4C(F)(F)F)nc3-c3ccccc3)nc21 [EXAMPLE 6, 3-(2,2-Dimethylpropyl)-5-[2-(2-fluoro-6-trifluoromethylphenyl)-5-phenyl-3H-imidazol-4-yl]-3H-imidazo[4,5-b]pyridin-2-ylamine methanesulfonate]	7.2 nM	< 9.1 nM
CC(C)(C)Cn1c(N)nc2ccc(-c3[nH]c(C(C)(C)C)nc3-c3ccc(F)cc3)nc21 [EXAMPLE 9, 5-[2-tert-Butyl-5-(4-fluorophenyl)-3H-imidazol-4-yl]-3-(2,2-dimethylpropyl)-3H-imidazo[4,5-b]pyridin-2-ylamine methanesulfonate]		1.2 nM
CC(C)(C)Cn1c(N)nc2ccc(-c3[nH]c(C(C)(C)C)nc3-c3ccc(F)cc3F)nc21 [EXAMPLE 11, 5-[2-tert-Butyl-5-(2,4-difluorophenyl)-3H-imidazol-4-yl]-3-(2,2-dimethylpropyl)-3H-imidazo[4,5-b]pyridin-2-ylamine methanesulfonate]		2.4 nM
C[C@@H](n1c(N)nc2ccc(-c3[nH]c(C(C)(C)C)nc3-c3ccc(F)cc3)nc21)C(C)(C)C [compound 12, R-5-[2-tert-Butyl-5-(4-fluorophenyl)-3H-imidazol-4-yl]-3-(1,2,2-trimethylpropyl)-3H-imidazo[4,5-b]pyridin-2-ylamine methanesulfonate]	3.6 nM	
C[C@@H](n1c(N)nc2ccc(-c3[nH]c(-c4c(F)cccc4F)nc3-c3ccc(F)cc3)nc21)C(C)(C)C [compound 13, R-5-[2-(2,6-Difluorophenyl)-5-(4-fluorophenyl)-3H-imidazol-4-yl]-3-(1,2,2-trimethylpropyl)-3H-imidazo[4,5-b]pyridin-2-ylamine methanesulfonate]	3.3 nM	< 9.1 nM
CC(C)(C)Cn1c(N)nc2ccc(-c3[nH]c(-c4c(F)cccc4Cl)nc3-c3ccccc3)nc21 [compound 18, 5-[2-(2-Chloro-6-fluorophenyl)-5-phenyl-3H-imidazol-4-yl]-3-(2,2-dimethylpropyl)-3H-imidazo[4,5-b]pyridin-2-ylamine methanesulfonate]	3.6 nM	< 9.1 nM
Nc1nc2ccc(-c3[nH]c(-c4c(F)cccc4F)nc3-c3ccccc3)nc2n1CC1CC1 [compound 19, 3-Cyclopropylmethyl-5-[2-(2,6-difluorophenyl)-5-phenyl-3H-imidazol-4-yl]-3H-imidazo[4,5-b]pyridin-2-ylamine methanesulfonate]	3.2 nM	< 9.1 nM
